Results reported in patent US11603380B2 (Centre national de la recherche scientifique, priority 2018, dated 2023).
Where two headings read alike, the source gives them in different places.

How the values were obtained:
VZV-BAC-Luc = assay: SCID-Hu mouse model of VZV replication (human fetal skin xenografts); format: in vivo, CB.17 scid/beige male mice; conditions: for VZV spread / virus yield (Total Flux) vs Vehicle: once daily Days 0-8, 5 26 mg/kg subcutaneous, cidofovir 10 mg/kg intraperitoneal, yield compared Day 9, p=0.0051
Experimental: SCID-Hu mouse model of VZV replication. CB.17 scid/beige male mice (Charles River) were implanted subcutaneously with human fetal skin (the same type of specimens used for the skin organ culture assay). After 3-4 weeks engraftment, the skin implants were inoculated with VZV-BAC-Luc or VZV-ORF57-Luc. The mice were divided into groups (N=10-13) for treatment or controls. The positive control antiviral drug was cidofovir, 10 mg/kg/day given by intraperitoneal injection. The negative control was the vehicle Cremophor-DMSO-saline (1:1:8) given by subcutaneous injection. The treatment groups were 5 in Cremophor-DMSO-saline, 26, 13, or 6.5 mg/kg/day, given by subcutaneous injection. Treatment began 2 hours or 3 days after the inoculation surgery and continued daily or alternating days for up to 9 days. The mice were scanned in the IVIS-200 instrument daily from Day 1-10. The mice were weighed before the start of the study and daily during the treatment phase.
Statistical analysis: The results were analyzed for statistical significance by Student's t test or by ANOVA and Dunnett's post hoc test of multiple comparisons (GraphPad Prism).
CB.17 scid/beige male mice were implanted subcutaneously with human fetal skin (the same type of specimens used for the skin organ culture assay). After 3-5 weeks engraftment period, the skin implants were inoculated with VZV-BAC-Luc. The mice were divided into 3 groups of 10-13 mice: vehicle (Cremophor-DMSO-saline 1:1:8), cidofovir 10 mg/kg in saline, and 5 26 mg/kg in Cremophor-DMSO-saline. 5 at 26 mg/kg is the molar equivalent dose to cidofovir 10 mg/kg. Cidofovir was given by the intraperitoneal route, once daily, from Days 0-8. Vehicle and 5 were given by the subcutaneous route, once daily, from Days 0-8. The mice were scanned in the IVIS-200 instrument daily from Day 1-9 and the Total Flux values indicated VZV-infected cells in the skin xenografts (FIG. 3). […] VZV grew normally in the Vehicle group.
In addition, a dose-ranging and delayed treatment assay was included to determine the lowest effective dose (FIGS. 5A and 5B). As before, 5 26 mg/kg was given once daily, by the subcutaneous route, from Days 0-6. This group was compared to Vehicle (Cremophor-DMSO-saline). In the dose ranging assay, 5 high dose (26 mg/kg), medium dose (13 mg/kg) or low dose (6.5 mg/kg) was given once daily, by the subcutaneous route, from Days 3-9. The treatment phase was delayed to Day 3 because this is more clinically relevant.

HSV-2 (G) = assay: microbe, parasite or virus in culture; format: cell-based, herpes simplex virus 2; conditions: read-out: EC50 HSV-2 (G)
HSV-1 (KOS ACV) TK− = assay: microbe, parasite or virus in culture; format: cell-based, herpes simplex virus 1
[1] = tested on: VZV-BAC-Luc TK− strain (ACV^R); assay: microbe, parasite or virus in culture; format: cell-based, varicella zoster virus; conditions: read-out: approximate EC50, ACV^R VZV
[2] = tested on: human cytomegalovirus (HCMV) (AD-169); assay: microbe, parasite or virus in culture; format: cell-based; conditions: read-out: EC50 HCMV (AD-169)
[3] = tested on: VZV-BAC-Luc in human fetal skin; assay: Human skin organ culture model of VZV replication; format: cell-based, varicella zoster virus; conditions: for VZV yield in skin organ culture compared to vehicle: Day 11, cidofovir 5 μM, 5 at 1 and 5 μM (p<0.0001 vs vehicle)
Vaccinia Virus = assay: microbe, parasite or virus in culture; format: cell-based; conditions: read-out: EC50 Vaccinia Virus
[4] = Weight and condition of mice during treatment in the SCID-Hu model; conditions: for change in weight during the treatment phase: first study, Days 0-8, 5 26 mg/kg sc, cidofovir 10 mg/kg ip
[5] = tested on: human cytomegalovirus (HCMV) (Davis); assay: microbe, parasite or virus in culture; format: cell-based; conditions: read-out: EC50 HCMV (Davis)
[6] = tested on: VZV-BAC-Luc strain (wild type); assay: microbe, parasite or virus in culture; format: cell-based, varicella zoster virus; conditions: read-out: approximate EC50, wild type VZV
[7] = tested on: herpes simplex virus 1 (HSV-1) (KOS); assay: microbe, parasite or virus in culture; format: cell-based; conditions: read-out: EC50 HSV-1 (KOS)
in vitro = conditions: human, Cytotoxicity CC50
HBV = assay: Anti-HBV activity, Huh7 cells transfected with pHBV1.1×, intra-capsid viral DNA by real-time PCR; format: cell-based, Hepatitis B virus; conditions: 7 days, read-out: IC50 (HBV replication) (converted)
Myxomatosis Virus (MYXV) = format: cell-based
[8] = tested on: varicella-zoster virus (VZV) TK+ (OKA); assay: microbe, parasite or virus in culture; format: cell-based; conditions: read-out: EC50 VZV TK+ (OKA)
Equine Herpes V 4 = assay: Virus infection assay, Equine Herpes V 4, permissive cells; format: cell-based
Experimental: (§1) 2. Virus Infection (Protocols for: Adeno Virus, Cytomegalo Virus, Poxvirus, Myxo Virus, Equine Herpes Virus)
(§2) Cognate permissive cell lines were used for each virus infection assay.
(§3) Cells were grown in DMEM without phenol red (Sigma-Aldrich) 10% SVF, Pen-strep, 1× sodium pyruvate, 1× Glutamax.
(§4) Virus infection was carried out on permissive cells seeded in either in 96 wells plate or in 6 well plates, in duplicate at one or two MOI (multiplicity of infection) and 7 concentrations of LA6. • Day 0: cells seeded at 10 k per well in Corning Glass Bottom 96 well plates in 200 μl of DMEM without phenol red or 200 k in 6 well plates. • Day 1: cells were treated with LA6 (from 1 to 0.0037 μM by […] dilutions) in duplicate and were infected at different MOI according to the tested virus • Day 2 to day 7: cells were fixed with Formalin 10 min at room temperature. Cells were washed with 200 μL PBS and 100 μL PBS/Hoechst® 33342 (1/1000) per well. 96 well plates were kept at 4° C. in the dark until data acquisition Image acquisition and analysis for high content quantification was performed on a Thermo Cellomics Arrayscan™ VTI microscope using a modified compartmental analysis algorithm for fluorescent virus. For unmodified virus, ECP progression or plaque count was determined visually by double blind analysis.

Vaccinia Virus TK− = format: cell-based
[9] = tested on: HSV-1, HSV-2, HSV-1 (TK−), VV, FHV; format: cell-based
Equine Herpes V 1 = format: cell-based, Equine herpes virus
Feline Herpes Virus = assay: organism not typed; format: cell-based; conditions: read-out: EC50 Feline Herpes Virus
Adeno virus = assay: Virus infection assay, Adeno virus, permissive cells; format: cell-based
Experimental: as §1, §2, §3, §4

HEL cells = conditions: read-out: Cytotoxicity CC50; concentration reducing cell growth by 50%; HCMV/VZV table
[10] = Human alphaherpesvirus 3, ARPE-19, 72 h
[11] = ARPE-19 cells, 3 days, bioluminescence, estimated by interpolation

## Nc1ccn(C[C@@H](CO)OCP(=O)(O)O)c(=O)n1 [Cidofovir, reference compound]
VZV-BAC-Luc
  VZV spread / virus yield (Total Flux) vs Vehicle: prevented VZV spread
HSV-2 (G); Human alphaherpesvirus 2, HEL
  EC50: 1000 nM
HSV-1 (KOS ACV) TK−; Human alphaherpesvirus 1, read-out: EC50 HSV-1 (KOS ACV) TK−
  EC50: 2800 nM
HEL cell cultures; human
  Cytotoxicity MCC: >100 µM
[1]; [10]
  EC50: ~2500 nM
[2]; Human betaherpesvirus 5, AD169, HEL
  EC50: 1200 nM
[3]
  VZV yield in skin organ culture compared to vehicle: effective
Vaccinia Virus; Orthopoxvirus vaccinia, HEL
  EC50: 112000 nM
[4]
  change in weight during the treatment phase: moderate weight loss
[5]; Human betaherpesvirus 5, HEL
  EC50: 1000 nM
[6]; [10]
  EC50: ~2500 nM
[7]; Human alphaherpesvirus 1, HEL
  EC50: 4500 nM
In vitro
  CC50: > 100000 nM

## [(E)-2-[(2,6-diaminopyrimid in-4-yl)oxymethyl]-4-[3-hexadecoxypropoxy (isopropoxycarbonyloxymethoxy)phosphoryl]but-2′-enyl]acetate [Compound 13]
HBV
  IC50: 1600 nM

## [(Z)-2-[(2,6-diaminopyrimidin-4-yl)oxymethyl]-4-[3-hexadecoxypropoxy (isopropoxycarbonyloxymethoxy)phosphoryl]but-2′-enyl]acetate [Compound (5)]
Myxomatosis Virus (MYXV)
  EC50: 51 nM
HBV
  IC50: 400 nM
VZV-BAC-Luc; 6.5 mg/kg once daily subcutaneous Days 3-9, yield Day 10 p=0.029
  antiviral effect, delayed treatment, low dose: equally effective
VZV-BAC-Luc; 13 mg/kg once daily subcutaneous Days 3-9, yield Day 10 p=0.029
  antiviral effect, delayed treatment, medium dose: equally effective
VZV-BAC-Luc; 26 mg/kg once daily subcutaneous Days 0-6, p=0.008
  Virus yield on Day 7 vs Vehicle: significantly less than the Vehicle group
VZV-BAC-Luc; 26 mg/kg once daily subcutaneous Days 3-9, yield Day 10 p=0.029
  antiviral effect, delayed treatment, high dose: also effective
VZV-BAC-Luc
  VZV spread / virus yield (Total Flux) vs Vehicle: prevented VZV spread
VZV-BAC-Luc; once daily subcutaneous Days 3-9
  low dose effectively preventing VZV spread: 6.5 mg/kg
HSV-2 (G)
  EC50: 15 nM
HSV-1 (KOS ACV) TK−; read-out: EC50 HSV-1 (KOS ACV) TK−
  EC50: 8 ± 2 nM
HEL cell cultures
  Cytotoxicity MCC: 60 µM
[8]
  EC50: 3.5 nM
Equine Herpes V 4
  EC50: < 125 nM
[1]; [11]
  EC50: ~10 nM
[2]
  EC50: 1790 nM
[3]
  VZV yield in skin organ culture compared to vehicle: effective
[3]; skin organ culture
  concentration preventing VZV spread in skin: ≥ 1 µM
Vaccinia Virus TK−; read-out: EC50 Vaccinia Virus TK−
  EC50: < 30 nM
Vaccinia Virus TK−; read-out: EC50 vaccicnia virus TK-
  EC50: < 30 nM
[9]
  activity level against HSV-1, HSV-2, HSV-1 (TK−), VV, FHV: micromolar and sub-micromolar activities
[9]; read-out: EC50 against both tested viruses
  EC50: < 350 nM
Vaccinia Virus
  EC50: 115 ± 110 nM
Equine Herpes V 1
  EC50: < 125 nM
Feline Herpes Virus
  EC50: 350 nM
[4]
  change in weight during the treatment phase: did not cause weight loss
[4]; repeat and dose-ranging study, 6.5-26 mg/kg sc
  overt toxicity (weight and condition of the mice): did not cause overt toxicity
Adeno virus
  EC50: < 37 nM
Adeno virus; text statement
  EC50: < 37 nM
[5]
  EC50: 700 nM
[6]; [11]
  EC50: ~10 nM
[7]
  EC50: 43 ± 37 nM
HEL cells
  CC50: 660 nM
